From US11266715B2, “C3A receptor agonists for use against ischemic brain injury, stroke, traumatic brain injury, spinal cord injury and neurodegenerative disorders” (priority 2016, dated 2022) come the findings set out here.

For this assay, the system named is GFAP. Kind of assay: GFAP immunoreactivity in dorsal hippocampus after neonatal HI. Format: in vivo, mouse. The conditions noted are these: P55, 3 days treatment after HI. The procedure: On P51 (long-term study) or P55 (short-term study), mice were deeply anesthetized with thiopental [Pentothal Sodium (0.01 ml/g body weight), Hospira, Ill., USA)] and transcardially perfused with 0.9% saline, followed by 4% paraformaldehyde (PFA) in 0.1 M PBS. Brains were removed and post-fixed in 4% PFA at 4° C. for 24 h followed by 70% ethanol for 24 h. Tissue was processed using an automatic tissue processor (SAKURA Tissue Tek VIP 3000, Tournai, Belgium) and embedded in paraffin. Brains were cut at room temperature into 8-μm serial coronal sections using a sliding microtome (Microm HM 450, Thermo Scientific, Massachusetts, USA), attached to silane coated slides and dried at RT. […]
NeuN positive cells, GFAP positive relative area, as well as GAP-43, SYN, and VGLUT1 positive puncta were counted by using MetaMorph software (ver. 7.8.6, Molecular Devices, CA, USA) on confocal images obtained with a 20× (NeuN and GFAP) or 63× (GAP-43, SYN, and VGLUT1) objective (Carl Zeiss LSM 700 Laser Scanning Microscope, Jena, Germany). Iba-1 positive cell somata were counted on bright field images obtained with a 20× objective (Nikon Eclipse 80i). […]

Turning to “C3a: Purified human C3a peptide (Complement Technologies), C3a receptor agonist, amino acid sequence SEQ ID NO: 1”, the “GFAP relative area in CA1 and DG” value is given as “did not differ between the hemispheres or in comparison with sham mice”.
